Tests used:
Format in all cases: functional
[1] = system: OVCAR-4; assay: Cytotoxicity against Homo sapiens (human) OVCAR4 cells after 48 hr by SRB assay; conditions: OVCAR-4, 48 h
[2] = system: MCF7; assay: Cytotoxicity against Homo sapiens (human) MCF7 cells after 48 hr by SRB assay; conditions: MCF7, 48 h
[3] = system: HCT-116; assay: Cytotoxicity against Homo sapiens (human) HCT116 cells after 48 hr by SRB assay; conditions: HCT-116, 48 h
[4] = Cytotoxicity against Homo sapiens (human) melanoma cells after 48 hr by SRB assay; conditions: Melanoma cell
[5] = system: MDA-MB-435; assay: Cytotoxicity against Homo sapiens (human) MDA-MB-435 cells after 48 hr by SRB assay; conditions: MDA-MB-435, 48 h
[6] = system: SN12C; assay: Cytotoxicity against Homo sapiens (human) SN12C cells after 48 hr by SRB assay
[7] = system: SF-539; assay: Cytotoxicity against Homo sapiens (human) SF539 cells after 48 hr by SRB assay; conditions: SF-539, 48 h
[8] = system: PC-3; assay: Cytotoxicity against Homo sapiens (human) PC3 cells after 48 hr by SRB assay; conditions: PC-3, 48 h
[9] = system: OVCAR-8; assay: Cytotoxicity against Homo sapiens (human) OVCAR8 cells after 48 hr by SRB assay; conditions: OVCAR-8, 48 h
[10] = system: MDA-MB-231; assay: Cytotoxicity against Homo sapiens (human) MDA-MB-231 cells after 48 hr by SRB assay; conditions: MDA-MB-231, 48 h
[11] = system: UACC-257; assay: Cytotoxicity against Homo sapiens (human) UACC257 cells after 48 hr by SRB assay; conditions: UACC-257, 48 h
[12] = system: TK-10; assay: Cytotoxicity against Homo sapiens (human) TK10 cells after 48 hr by SRB assay; conditions: TK-10, 48 h
[13] = system: HOP-62; assay: Cytotoxicity against Homo sapiens (human) HOP62 cells after 48 hr by SRB assay; conditions: HOP-62, 48 h
[14] = system: MCF7; assay: Cytotoxicity against Homo sapiens (human) MCF7 cells assessed as cellular growth after 48 hr by Alamar blue assay; parameters: concentration or dose not given beside the values
[15] = system: K562; assay: Cytotoxicity against Homo sapiens (human) K562 cells after 48 hr by SRB assay; conditions: K562, 48 h
[16] = system: COLO 205; assay: Cytotoxicity against Homo sapiens (human) COLO205 cells after 48 hr by SRB assay; conditions: COLO 205, 48 h
[17] = system: SF-295; assay: Cytotoxicity against Homo sapiens (human) SF295 cells after 48 hr by SRB assay; conditions: SF-295, 48 h
[18] = system: NCI-H226; assay: Cytotoxicity against Homo sapiens (human) NCI-H226 cells after 48 hr by SRB assay; conditions: NCI-H226, 48 h
[19] = system: SK-MEL-2; assay: Cytotoxicity against Homo sapiens (human) SK-MEL-2 cells after 48 hr by SRB assay; conditions: SK-MEL-2, 48 h
[20] = system: OVCAR-5; assay: Cytotoxicity against Homo sapiens (human) OVCAR5 cells after 48 hr by SRB assay; conditions: OVCAR-5, 48 h

Row | Structure (SMILES) | GI50 [1] | GI50 [2] | GI50 [3] | GI50 [4] | TGI [4] | GI50 [5] | GI50 [6] | GI50 [7] | GI50 [8] | GI50 [9] | GI50 [10] | GI50 [11] | GI50 [12] | GI50 [13] | Activity [14] | GI50 [15] | GI50 [16] | GI50 [17] | GI50 [19] | GI50 [20] | other results
1 | NS(=O)(=O)c1ccc(-n2nc3c(c2-c2cccs2)Cc2ccccc2-3)cc1 | 29.9 µM | > 100 µM | 7.67 µM | 17.5 µM | 38.9 µM | 11.8 µM | 12.2 µM | 21.1 µM | 20.6 µM | 20.5 µM | 17.3 µM | 23.2 µM | 12.2 µM | 16.5 µM | <=32% | 0.86 µM | 25.3 µM | 13.8 µM | 27.6 µM | 18.5 µM | GI50 [18]: 4.9 µM
2 | NS(=O)(=O)c1ccc(N2N=C3c4ccccc4CC3C2c2cccs2)cc1 (stereo not given) | > 100 µM | > 100 µM | 10.7 µM | 41.5 µM | 51 µM | 19.3 µM | 23.5 µM | 17.4 µM | 22.1 µM | 15.3 µM | 16.8 µM | 29.7 µM | 13.2 µM | 16.9 µM | <=32% | 57.5 µM | 58.9 µM | 16.2 µM | > 100 µM | 26.6 µM | 
3 | O=C(Nc1ccccc1)NS(=O)(=O)c1ccc(N2N=C3c4ccccc4CC3C2c2cccnc2)cc1 (stereo not given) | > 100 µM | 27 µM | 15.3 µM | 30.8 µM | 49.3 µM | 21.4 µM | 30.4 µM | 30.6 µM | 36.2 µM | 27 µM | 19.8 µM | 26.6 µM | 11.7 µM | 20.4 µM | <=32% | 26.6 µM | 31.1 µM | 20.6 µM | 35.6 µM | 26.8 µM | GI50 [18]: 23.7 µM
4 | O=C(NC1CCCCC1)NS(=O)(=O)c1ccc(-n2nc3c(c2-c2cccs2)Cc2ccccc2-3)cc1 | 27 µM | > 100 µM | 31.6 µM | 27.2 µM | 53.4 µM | 32.5 µM | 21.5 µM | 27.6 µM | 14.5 µM | 25.3 µM | 27.9 µM | 24.8 µM | 17.5 µM | > 100 µM | <=32% | 10 µM | 23.3 µM | 34.9 µM | 23.6 µM | 26.6 µM | GI50 [18]: 21.3 µM
5 | O=C(Nc1ccccc1)NS(=O)(=O)c1ccc(-n2nc3c(c2-c2cccs2)Cc2ccccc2-3)cc1 | 34.9 µM | 13.4 µM | 9.13 µM | 29.5 µM | 43 µM | 22.1 µM | 19.9 µM | 25 µM | 10.4 µM | 28.3 µM | 15.3 µM | 17.7 µM | 4.99 µM | 18.1 µM | <=32% | 14 µM | 44 µM | 21.9 µM | 70.1 µM | 20.1 µM | GI50 [18]: 19.2 µM
6 | O=S(=O)(NC(=S)Nc1ccccc1)c1ccc(N2N=C3c4ccccc4CC3C2c2cccs2)cc1 (stereo not given) | 69.8 µM | 3.1 µM | 15.1 µM | 32.2 µM | 68.4 µM | 19.4 µM | 21.4 µM | 22.7 µM | 22.9 µM | 39 µM | 24.8 µM | 29.1 µM | 12.2 µM | 20.3 µM | <=32% | 31.3 µM | 41.9 µM | 18.9 µM | 55.9 µM | 17.9 µM | GI50 [18]: 27.2 µM
